Measurements from ChEMBL document CHEMBL1201862, “PubChem BioAssay data set” (2004).
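Each compound was tested at five concentrations against cells in 96-well plates for 48 hours. Here, GI50 denotes the concentration required for 50% inhibition of growth.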 The source made the active and inactive calls. Rule as the data show it: active = GI50 up to about 1.1 µM and inactive = higher.

Assays:
Assay in all cases: DTP human tumour cell line panel, 48 h
T47D = tested on: T47D
SNB-19 = tested on: SNB-19
SK-OV-3 = tested on: SK-OV-3
NCI/ADR-RES = tested on: NCI/ADR-RES
NCI-H23 = tested on: NCI-H23
SK-MEL-28 = tested on: SK-MEL-28
RPMI-8226 = tested on: RPMI-8226
EKVX = tested on: EKVX
BT-549 = tested on: BT-549
MOLT-4 = tested on: MOLT-4
UACC-62 = tested on: UACC-62
DU-145 = tested on: DU-145
SW-620 = tested on: SW-620
LOX IMVI = tested on: LOX IMVI
HCT-116 = tested on: HCT-116
SN12C = tested on: SN12C
OVCAR-5 = tested on: OVCAR-5
UACC-257 = tested on: UACC-257
CAKI-1 = tested on: CAKI-1
HCT-15 = tested on: HCT-15
SR = tested on: SR
OVCAR-8 = tested on: OVCAR-8
COLO 205 = tested on: COLO 205
SK-MEL-5 = tested on: SK-MEL-5
HOP-62 = tested on: HOP-62
Malme-3M = tested on: Malme-3M
SK-MEL-2 = tested on: SK-MEL-2
A549 = tested on: A549
HL-60 = tested on: HL-60
ACHN = tested on: ACHN
MCF7 = tested on: MCF7
OVCAR-3 = tested on: OVCAR-3
M14 = tested on: M14
MDA-N = tested on: MDA-N
RXF 393 = tested on: RXF 393
NCI-H226 = tested on: NCI-H226
KM12 = tested on: KM12
NCI-H522 = tested on: NCI-H522
IGROV-1 = tested on: IGROV-1
SF-539 = tested on: SF-539
786-0 = tested on: 786-0
U-251 = tested on: U-251
NCI-H460 = tested on: NCI-H460
PC-3 = tested on: PC-3
A498 = tested on: A498
SF-268 = tested on: SF-268
UO-31 = tested on: UO-31
HT-29 = tested on: HT-29
OVCAR-4 = tested on: OVCAR-4
MDA-MB-231 = tested on: MDA-MB-231
MDA-MB-435 = tested on: MDA-MB-435
HCC 2998 = tested on: HCC 2998
TK-10 = tested on: TK-10
HOP-92 = tested on: HOP-92
SNB-75 = tested on: SNB-75
SF-295 = tested on: SF-295
CCRF-CEM = tested on: CCRF-CEM
Hs-578T = tested on: Hs-578T
K562 = tested on: K562

`CCCCC(=O)Nc1ccc2cc(C(=O)OC)c(Cl)nc2n1` was tested, and the GI50 (T47D) was 7.89 µM (inactive), the GI50 (SNB-19) was 16.5 µM (inactive) and the GI50 (SK-OV-3) was > 100 µM (inactive). The GI50 (NCI/ADR-RES) was > 100 µM (inactive), the GI50 (NCI-H23) was > 100 µM (inactive) and the GI50 (SK-MEL-28) was > 76.4 µM (inactive). The GI50 (RPMI-8226) was 9.75 µM (inactive), the GI50 (EKVX) was 59.7 µM (inactive) and the GI50 (BT-549) was > 100 µM (inactive). For the same compound, the GI50 (MOLT-4) was > 100 µM (inactive), the GI50 (UACC-62) was > 100 µM (inactive) and the GI50 (DU-145) was 3.11 µM (inactive). The GI50 (SW-620) was > 100 µM (inactive), the GI50 (LOX IMVI) was > 100 µM (inactive) and the GI50 (HCT-116) was > 93.5 µM (inactive). For the same compound, the GI50 (SN12C) was 50 µM (inactive), the GI50 (OVCAR-5) was > 100 µM (inactive) and the GI50 (UACC-257) was 43.7 µM (inactive). For the same compound, the GI50 (CAKI-1) was > 60.7 µM (inactive), the GI50 (HCT-15) was greater than 100 µM and the GI50 (SR) was > 100 µM (inactive). The GI50 (OVCAR-8) was > 100 µM (inactive), the GI50 (COLO 205) was 12.8 µM (inactive) and the GI50 (SK-MEL-5) was > 90.8 µM (inactive). For the same compound, the GI50 (HOP-62) was 7.11 µM (inactive), the GI50 (Malme-3M) was > 100 µM (inactive) and the GI50 (SK-MEL-2) was > 100 µM (inactive). The GI50 (A549) was > 100 µM (inactive), the GI50 (HL-60) was 2.58 µM (inactive) and the GI50 (ACHN) was > 100 µM (inactive). The GI50 (MCF7) was 13.3 µM (inactive), the GI50 (OVCAR-3) was 7.59 µM (inactive) and the GI50 (M14) was > 100 µM (inactive). The GI50 (MDA-N) was > 100 µM (inactive), the GI50 (RXF 393) was > 100 µM (inactive) and the GI50 (NCI-H226) was > 100 µM (inactive). The GI50 (KM12) was 3.15 µM (inactive), the GI50 (NCI-H522) was > 100 µM (inactive) and the GI50 (IGROV-1) was > 100 µM (inactive). The GI50 (SF-539) was > 100 µM (inactive), the GI50 (786-0) was > 100 µM (inactive) and the GI50 (U-251) was 28.6 µM (inactive). For the same compound, the GI50 (NCI-H460) was 44.2 µM (inactive), the GI50 (PC-3) was 19.7 µM (inactive) and the GI50 (A498) was 37.1 µM (inactive). For the same compound, the GI50 (SF-268) was > 100 µM (inactive), the GI50 (UO-31) was 19.9 µM (inactive) and the GI50 (HT-29) was > 100 µM (inactive). The GI50 (OVCAR-4) was > 100 µM (inactive), the GI50 (MDA-MB-231) was > 100 µM (inactive) and the GI50 (MDA-MB-435) was > 100 µM (inactive). The GI50 (HCC 2998) was 10.9 µM (inactive), the GI50 (TK-10) was > 71.3 µM (inactive) and the GI50 (HOP-92) was > 100 µM (inactive). For the same compound, the GI50 (SNB-75) was > 100 µM (inactive), the GI50 (SF-295) was 40.1 µM (inactive) and the GI50 (CCRF-CEM) was > 100 µM (inactive). For the same compound, the GI50 (Hs-578T) was 4.7 µM (inactive) and the GI50 (K562) was > 100 µM (inactive).

With `O=C1C=CC(=O)C(CNc2ccc(C(=O)OCc3ccccc3)cc2)=C1` the GI50 (T47D) was 1.77 µM (inactive), the GI50 (SNB-19) was 13.4 µM (inactive) and the GI50 (SK-OV-3) was 12.6 µM (inactive). The GI50 (NCI/ADR-RES) was 4 µM (inactive), the GI50 (NCI-H23) was 10.2 µM (inactive) and the GI50 (SK-MEL-28) was 5.11 µM (inactive). For the same compound, the GI50 (RPMI-8226) was 1.47 µM (inactive), the GI50 (EKVX) was 10.4 µM (inactive) and the GI50 (BT-549) was 2.56 µM (inactive). The GI50 (MOLT-4) was 2 µM (inactive), the GI50 (UACC-62) was 8.97 µM (inactive) and the GI50 (DU-145) was 12.2 µM (inactive). The GI50 (SW-620) was 4.99 µM (inactive), the GI50 (LOX IMVI) was 4.14 µM (inactive) and the GI50 (HCT-116) was 5.3 µM (inactive). For the same compound, the GI50 (SN12C) was 6.18 µM (inactive), the GI50 (OVCAR-5) was 15.6 µM (inactive) and the GI50 (UACC-257) was 11.5 µM (inactive). The GI50 (CAKI-1) was 1.38 µM (inactive), the GI50 (HCT-15) was 2.59 µM and the GI50 (SR) was 1.29 µM (inactive). The GI50 (OVCAR-8) was 3.98 µM (inactive), the GI50 (COLO 205) was 1.86 µM (inactive) and the GI50 (SK-MEL-5) was 3.19 µM (inactive). The GI50 (HOP-62) was 17.3 µM (inactive), the GI50 (Malme-3M) was 2.67 µM (inactive) and the GI50 (SK-MEL-2) was 14.9 µM (inactive). For the same compound, the GI50 (A549) was 14.5 µM (inactive), the GI50 (HL-60) was 1.08 µM (active) and the GI50 (ACHN) was 3.66 µM (inactive). The GI50 (MCF7) was 4.57 µM (inactive), the GI50 (OVCAR-3) was 2.4 µM (inactive) and the GI50 (M14) was 7.05 µM (inactive). For the same compound, the GI50 (MDA-N) was 6.85 µM (inactive), the GI50 (RXF 393) was 2.68 µM (inactive) and the GI50 (NCI-H226) was 12.3 µM (inactive). The GI50 (KM12) was 9.35 µM (inactive), the GI50 (NCI-H522) was 1.39 µM (inactive) and the GI50 (IGROV-1) was 3.27 µM (inactive). The GI50 (SF-539) was 2.72 µM (inactive), the GI50 (786-0) was 3.33 µM (inactive) and the GI50 (U-251) was 6.24 µM (inactive). The GI50 (NCI-H460) was 16.9 µM (inactive), the GI50 (PC-3) was 3.36 µM (inactive) and the GI50 (A498) was 11.2 µM (inactive). The GI50 (SF-268) was 6.4 µM (inactive), the GI50 (UO-31) was 2.29 µM (inactive) and the GI50 (HT-29) was 15.2 µM (inactive). The GI50 (OVCAR-4) was 3.81 µM (inactive), the GI50 (MDA-MB-231) was 7.82 µM (inactive) and the GI50 (MDA-MB-435) was 5.06 µM (inactive). The GI50 (HCC 2998) was 16 µM (inactive), the GI50 (TK-10) was 4.62 µM (inactive) and the GI50 (HOP-92) was 1.76 µM (inactive). The GI50 (SNB-75) was 5.25 µM (inactive), the GI50 (SF-295) was 17.7 µM (inactive) and the GI50 (CCRF-CEM) was 0.661 µM (active). The GI50 (Hs-578T) was 6.12 µM (inactive) and the GI50 (K562) was 2.62 µM (inactive).

For `CC(C)NC(=O)OCc1c(COC(=O)NC(C)C)c(-c2ccc[n+](COC(=O)CC(C)(C)C)c2)n2c1CCC2`, the GI50 (T47D) was > 100 µM (inactive), the GI50 (SNB-19) was > 100 µM (inactive) and the GI50 (SK-OV-3) was > 100 µM (inactive). The GI50 (NCI/ADR-RES) was 71 µM (inactive), the GI50 (NCI-H23) was 48.6 µM (inactive) and the GI50 (SK-MEL-28) was > 100 µM (inactive). The GI50 (RPMI-8226) was > 100 µM (inactive), the GI50 (EKVX) was > 100 µM (inactive) and the GI50 (BT-549) was > 100 µM (inactive). The GI50 (MOLT-4) was > 100 µM (inactive), the GI50 (UACC-62) was 39.9 µM (inactive) and the GI50 (DU-145) was > 100 µM (inactive). For the same compound, the GI50 (SW-620) was > 100 µM (inactive), the GI50 (LOX IMVI) was 78.3 µM (inactive) and the GI50 (HCT-116) was > 100 µM (inactive). The GI50 (SN12C) was 73.8 µM (inactive), the GI50 (OVCAR-5) was > 100 µM (inactive) and the GI50 (UACC-257) was > 100 µM (inactive). For the same compound, the GI50 (CAKI-1) was 38.5 µM (inactive), the GI50 (HCT-15) was greater than 100 µM and the GI50 (SR) was 71.1 µM (inactive). The GI50 (OVCAR-8) was 81.3 µM (inactive), the GI50 (COLO 205) was 89.3 µM (inactive) and the GI50 (SK-MEL-5) was > 100 µM (inactive). For the same compound, the GI50 (HOP-62) was 56.6 µM (inactive), the GI50 (Malme-3M) was > 100 µM (inactive) and the GI50 (SK-MEL-2) was > 100 µM (inactive). For the same compound, the GI50 (A549) was > 100 µM (inactive), the GI50 (HL-60) was > 100 µM (inactive) and the GI50 (ACHN) was 35.6 µM (inactive). The GI50 (MCF7) was 70.1 µM (inactive), the GI50 (OVCAR-3) was > 100 µM (inactive) and the GI50 (M14) was > 100 µM (inactive). The GI50 (MDA-N) was > 100 µM (inactive), the GI50 (RXF 393) was 38.7 µM (inactive) and the GI50 (NCI-H226) was > 100 µM (inactive). The GI50 (KM12) was > 100 µM (inactive), the GI50 (NCI-H522) was 31.6 µM (inactive) and the GI50 (IGROV-1) was > 100 µM (inactive). For the same compound, the GI50 (SF-539) was 84.9 µM (inactive), the GI50 (786-0) was 38.4 µM (inactive) and the GI50 (U-251) was 94.8 µM (inactive). For the same compound, the GI50 (NCI-H460) was 51.5 µM (inactive), the GI50 (PC-3) was 58.5 µM (inactive) and the GI50 (A498) was > 100 µM (inactive). For the same compound, the GI50 (SF-268) was 54 µM (inactive), the GI50 (UO-31) was 93.8 µM (inactive) and the GI50 (HT-29) was > 100 µM (inactive). The GI50 (OVCAR-4) was > 100 µM (inactive), the GI50 (MDA-MB-231) was > 100 µM (inactive) and the GI50 (MDA-MB-435) was > 100 µM (inactive). The GI50 (HCC 2998) was > 100 µM (inactive), the GI50 (TK-10) was > 100 µM (inactive) and the GI50 (HOP-92) was > 100 µM (inactive). For the same compound, the GI50 (SNB-75) was 67.6 µM (inactive), the GI50 (SF-295) was 60.5 µM (inactive) and the GI50 (CCRF-CEM) was > 100 µM (inactive). The GI50 (Hs-578T) was 87.7 µM (inactive) and the GI50 (K562) was > 100 µM (inactive).
